{
  "source": "patent US7790731B2",
  "about": "(Banyu Pharmaceutical Co. Ltd., priority 2005, dated 2010)",
  "key": {"[1]": {"test_system": "male SD rats", "assay": "Intracerebral histamine release promotion test", "format": "in vivo", "settings": "30 mg/kg orally, Pargyline-treated male SD rats, 2 hours after administration", "description": "A histamine 3 receptor antagonist or inverse-agonist is reported to promote histamine release at the nerve end presynaptic region in a brain. For the purpose of investigating the effect of the medicine of the invention on these, a test compound suspended in an aqueous 0.5% methyl cellulose solution was orally administered to male SD rats (7 to 10-week age, 200 to 300 g) treated with a monoamine oxidase inhibitor (Pargyline). 2 hours after the medicine administration, the rats were killed in euthanasia, and the brain tissue was rapidly taken out. According to a Miyamoto et al's method, the concentration of histamine and its main metabolite, tele-methylhistamine in the brain tissue was measured [see Analytical Biochemistry, Vol. 334, p. 89 (2004)]."}, "[2]": {"assay": "Thermal and light stability compared with the amorphous compound", "format": "physicochemical", "settings": "as compared with amorphous compound"}},
  "data": [
    {"smiles": "Cc1nc2cccc(C(F)(F)F)c2c(=O)n1-c1ccc(OCCCN2CCCC2)cc1", "note": "[form I crystal, 2-methyl-3-{4-[3-(1-pyrrolidinyl)propoxy]phenyl}-5-trifluoromethyl-4(3H)-quinazolinone]", "values": [
      {"measurement": "brain tele-methylhistamine level", "setting": "[1]", "result": "significantly increased"},
      {"measurement": "light stability", "setting": "[2]", "result": "excellent"},
      {"measurement": "thermal stability", "setting": "[2]", "result": "excellent"}
    ]}
  ]
}
